Laboratory results reported in publication PMC7216583 (Parasites & Vectors, 2020).
Counter-ions that a name gives are not always drawn. Like-named read-outs stand apart in the source and are kept apart here.

Experiments:
[1] = tested on: Toxoplasma gondii RH-2F tachyzoites; assay: microbe, parasite or virus in culture; conditions: 72 h
P2Y6 receptor = conditions: read-out: IC50 P2Y6 receptor; ref vendor brief description; cited from earlier work
GluR1 and GluR3 = tested on: GluR1 and GluR3; design: method as in vendor brief description; conditions: ref vendor brief description; cited from earlier work
RGS4 = tested on: RGS4; design: method as in vendor brief description; conditions: ref vendor brief description; cited from earlier work
HSP90α = conditions: read-out: IC50 HSP90α; ref library vendor description; cited from earlier work
ChK2 = tested on: ChK2; design: method as in vendor brief description; conditions: ref vendor brief description; cited from earlier work
VEGFR-2 = tested on: VEGFR-2; design: method as in vendor brief description; conditions: ref vendor brief description; cited from earlier work
Yes = tested on: Yes; design: method as in vendor brief description; conditions: ref vendor brief description; cited from earlier work
Fms = tested on: Fms; design: method as in vendor brief description; conditions: ref vendor brief description; cited from earlier work
[2] = biological target: angiotensin II type 1 (AT1) receptor; design: method as in vendor brief description; conditions: ref vendor brief description; cited from earlier work
CA IX = tested on: CA IX; design: method as in vendor brief description; conditions: ref vendor brief description; cited from earlier work
CA XII = tested on: CA XII; design: method as in vendor brief description; conditions: ref vendor brief description; cited from earlier work
[3] = biological target: HIV reverse transcriptase; design: method as in vendor brief description; conditions: ref vendor brief description; cited from earlier work
[4] = biological target: histamine 1 (H1) receptor; design: method as in vendor brief description; conditions: ref vendor brief description; cited from earlier work
PAFR = biological target: PAFR; design: method as in vendor brief description; conditions: ref vendor brief description; cited from earlier work
IKK-2 = tested on: IKK-2; design: method as in vendor brief description; conditions: ref vendor brief description; cited from earlier work
in vitro = conditions: human; for viability at 72 h: Host viability (%) mean
IKK complex = tested on: IKK complex; design: method as in vendor brief description; conditions: ref vendor brief description; cited from earlier work
IKK-1 = tested on: IKK-1; design: method as in vendor brief description; conditions: ref vendor brief description; cited from earlier work
mGlu5 receptor = biological target: mGlu5 receptor; design: method as in vendor brief description; conditions: ref vendor brief description; cited from earlier work
5-HT4b = biological target: 5-HT4b; design: method as in vendor brief description; conditions: ref vendor brief description; cited from earlier work
5-HT4a = biological target: 5-HT4a; design: method as in vendor brief description; conditions: ref vendor brief description; cited from earlier work
proteasome = tested on: proteasome; design: method as in vendor brief description; conditions: ref vendor brief description; cited from earlier work
GSK-3β = tested on: GSK-3β; design: method as in vendor brief description; conditions: ref vendor brief description; cited from earlier work
5-HT1A = tested on: 5-HT1A; design: method as in vendor brief description; conditions: ref vendor brief description; cited from earlier work
noradrenaline α2C = tested on: noradrenaline α2C; design: method as in vendor brief description; conditions: ref vendor brief description; cited from earlier work
5-HT2A = tested on: 5-HT2A; design: method as in vendor brief description; conditions: ref vendor brief description; cited from earlier work
5-HT7 receptor = biological target: 5-HT7 receptor; design: method as in vendor brief description; conditions: ref vendor brief description; cited from earlier work
dopamine D2 = tested on: dopamine D2; design: method as in vendor brief description; conditions: ref vendor brief description; cited from earlier work
Src = tested on: Src; design: method as in vendor brief description; conditions: ref vendor brief description; cited from earlier work
Abl = tested on: Abl; design: method as in vendor brief description; conditions: ref vendor brief description; read-out: IC50 Abl; cited from earlier work
VEGFR1 = tested on: VEGFR1; design: method as in vendor brief description; conditions: ref vendor brief description; cited from earlier work
CETP = tested on: CETP; design: method as in vendor brief description; conditions: ref vendor brief description; cited from earlier work
GSK-3α = tested on: GSK-3α; design: method as in vendor brief description; conditions: ref vendor brief description; cited from earlier work
β-adrenoceptor = biological target: β-adrenoceptor; design: method as in vendor brief description; conditions: ref vendor brief description; cited from earlier work
mGlu4 = tested on: mGlu4; design: method as in vendor brief description; conditions: ref vendor brief description; cited from earlier work
Factor Xa = tested on: Factor Xa; design: method as in vendor brief description; conditions: ref vendor brief description; cited from earlier work
LPA1 [5] = biological target: LPA1; design: method as in library vendor description; conditions: ref library vendor description; cited from earlier work
LPA3 [6] = biological target: LPA3; design: method as in library vendor description; conditions: ref library vendor description; cited from earlier work
LPA1 [7] = biological target: LPA1; design: method as in vendor brief description; conditions: ref vendor brief description; read-out: Ki LPA1-induced inositol phosphate production; cited from earlier work
LPA3 [8] = biological target: LPA3; design: method as in vendor brief description; conditions: ref vendor brief description; read-out: Ki LPA3-induced inositol phosphate production; cited from earlier work
LPA2 = biological target: LPA2; design: method as in library vendor description; conditions: ref library vendor description; cited from earlier work
[9] = tested on: human neutrophil elastase; design: method as in vendor brief description; conditions: ref vendor brief description; cited from earlier work
matriptase = biological target: matriptase; design: method as in vendor brief description; conditions: ref vendor brief description; cited from earlier work
CYP3A4 (P450) = tested on: CYP3A4 (P450); design: method as in vendor brief description; conditions: ref vendor brief description; cited from earlier work
V2 receptor = biological target: V2 receptor; design: method as in vendor brief description; conditions: ref vendor brief description; cited from earlier work
V1 receptor = biological target: V1 receptor; design: method as in vendor brief description; conditions: ref vendor brief description; cited from earlier work
[10] = biological target: HIF-1α prolyl hydroxylase-2 (PHD2); design: method as in vendor brief description; conditions: ref vendor brief description; cited from earlier work
NOD1 = tested on: NOD1; design: method as in vendor brief description; conditions: ref vendor brief description; cited from earlier work
PARP2 = tested on: PARP2; design: method as in library vendor description; conditions: ref library vendor description; cited from earlier work
AhR = conditions: cited from earlier work
Mdm2 = tested on: Mdm2; design: method as in library vendor description; conditions: ref library vendor description; cited from earlier work
[11] = read-out: Parasite inhibition (%) mean, preliminary screen of compound library, mean
[12] = read-out: Parasite inhibition (%) mean, preliminary screen, mean

## S=C=Nc1cccc(NC(=S)NCCCCNC(=S)Nc2cccc(N=C=S)c2)c1 [MRS 2578]
[1]; [11]
  inhibition of growth at 5 µM: 0.2%
P2Y6 receptor
  IC50: 37 nM

## NCCCCCNCC12CC3CC(CC(C3)C1)C2 [IEM 1754 dihydrobroMide]
[1]; [11]
  inhibition of growth at 5 µM: 15.8%
GluR1 and GluR3
  IC50: 6 µM

## Cc1ccc(-n2sc(=O)n(Cc3ccc(F)cc3)c2=O)cc1 [CCG 50014]
[1]; [11]
  inhibition of growth at 5 µM: 1.4%
RGS4
  IC50: 30 nM

## CCNC(=O)c1noc(-c2cc(C(C)C)c(O)cc2O)c1-c1ccc(CN2CCOCC2)cc1 [AUY922 (NVP-AUY922)]
[1]; [12]
  inhibition of growth at 5 µM: 8.2%
HSP90α
  IC50: […]

## Cn1cc(-c2[nH]c3cc(NC(=O)[C@H](N)C4CCCCC4)cc4c3c2C=NNC4=O)cn1 [PF 477736]
ChK2
  IC50: 47 nM
VEGFR-2
  IC50: 8 nM
[1]; [11]
  inhibition of growth at 5 µM: -0.5%
Yes
  IC50: 14 nM
Fms
  IC50: 10 nM

## CCOc1nc2cccc(C(=O)O)c2n1Cc1ccc(-c2ccccc2-c2nc(=O)o[nH]2)cc1 [Azilsartan (TAK-536)]
[1]; [11]
  inhibition of growth at 5 µM: 4.6%
[2]
  IC50: 2.6 nM

## NS(=O)(=O)c1ccc(NC(=O)Nc2ccc(F)cc2)cc1 [U-104]
[1]; [11]
  inhibition of growth at 5 µM: 5%
CA IX
  IC50: […]
CA XII
  IC50: […]

## Cc1cc(C)c(Nc2ccnc(Nc3ccc(C#N)cc3)n2)c(C)c1 [Dapivirine]
[1]; [11]
  inhibition of growth at 5 µM: 0.8%
[3]
  IC50: 24 nM

## Cc1cncc(CN2CCC(=C3c4ccc(Cl)cc4CCc4cccnc43)CC2)c1 [Rupatadine Fumarate]
[4]
  Ki: 102 nM
[1]; [11]
  inhibition of growth at 5 µM: 0.2%
PAFR
  Ki: 550 nM

## O=C(c1ccc(Nc2nccc(-c3cc4ccccc4s3)n2)cc1)N1CCC(N2CCCC2)CC1 [IKK-16]
IKK-2
  IC50: 40 nM
In vitro
  viability at 72 h: 10.7%
[1]; [11]
  inhibition of growth at 5 µM: 99.8%
IKK complex
  IC50: 70 nM
IKK-1
  IC50: 200 nM

## Cc1nc(C#Cc2ccnc(Cl)c2)c(C)n1-c1ccc(OC(F)(F)F)cc1 [CTEP]
[1]; [11]
  inhibition of growth at 5 µM: 2.4%
mGlu5 receptor
  IC50: 2.2 nM

## COCCCN1CCC(NC(=O)c2cc(Cl)c(N)c3c2OCC3)CC1 [Prucalopride]
[1]; [11]
  inhibition of growth at 5 µM: -7.6%
5-HT4b
  Ki: 8 nM
5-HT4a
  Ki: 2.5 nM

## CC(C)C[C@H](NC(=O)[C@H](CCc1ccccc1)NC(=O)CN1CCOCC1)C(=O)N[C@@H](Cc1ccccc1)C(=O)N[C@@H](CC(C)C)C(=O)[C@@]1(C)CO1 [Carfilzomib (PR-171)]
proteasome
  IC50: < 5 nM
[1]; [11]
  inhibition of growth at 5 µM: -3.5%

## Cn1sc(=O)n(Cc2ccccc2)c1=O [TDZD-8]
[1]; [11]
  inhibition of growth at 5 µM: 12.8%
GSK-3β
  IC50: 2000 nM

## O=C1[C@@H]2[C@H]3CC[C@H](C3)[C@@H]2C(=O)N1C[C@@H]1CCCC[C@H]1CN1CCN(c2nsc3ccccc23)CC1 [Lurasidone HCl, reference compound]
5-HT1A
  IC50: 6.75 nM
In vitro
  viability: 86.9%
  viability at 5 µM: 86.9 ± 1.7%
Noradrenaline α2C
  IC50: 10.8 nM
[1]; read-out: Parasite inhibition (%) Mean ± SD
  inhibition at 5 µM: 80.4 ± 1.5%
5-HT2A
  IC50: 2.03 nM
5-HT7 receptor
  IC50: 0.495 nM
Dopamine D2
  IC50: […]

## COc1cc2ncnc(Nc3ccc(Cl)cc3F)c2cc1OC [ZM 306416]
In vitro; preliminary screen of compound library, mean
  viability at 72 h: 76.6%
[1]; [11]
  inhibition of growth at 5 µM: 70.2%
Src
  IC50: […]
Abl
  IC50: 1300 nM
VEGFR1
  IC50: […]

## Cc1cc(C)c2c(c1)[C@@H](N(Cc1cc(C(F)(F)F)cc(C(F)(F)F)c1)c1nnn(C)n1)CCCN2C[C@H]1CC[C@H](C(=O)O)CC1 [Evacetrapib (LY2484595)]
[1]; [11]
  inhibition of growth at 5 µM: 22.6%
CETP
  IC50: 5.5 nM

## Cc1c[nH]c(-c2cnc(NCCNc3ccc(C#N)cn3)nc2-c2ccc(Cl)cc2Cl)n1 [CHIR-99021 (CT99021) HCl]
GSK-3α
  IC50: 10 nM
[1]; [11]
  inhibition of growth at 5 µM: 43.9%

## CCc1cc2c(cc1CC)CC(NC[C@H](O)c1ccc(O)c3[nH]c(=O)ccc13)C2 [Indacaterol Maleate]
[1]; [11]
  inhibition of growth at 5 µM: -8.9%
β-adrenoceptor
  pKi β-adrenoceptor: Indacaterol is an ultra-long-acting β-adrenoceptor agonist with pKi of 7.36.

## O=C(Nc1cccc(Cl)c1)c1ccccn1 [VU 0364770]
mGlu4
  EC50: 1100 nM
[1]; [11]
  inhibition of growth at 5 µM: 1.8%

## O=C(NCC1CN(c2ccc(N3CCOCC3=O)cc2)C(=O)O1)c1ccc(Cl)s1 (stereo not drawn) [Rivaroxaban (Xarelto)]
[1]; [11]
  inhibition of growth at 5 µM: 0.4%
Factor Xa
  IC50: […]

## Cc1noc(-c2ccc(CSCCC(=O)O)cc2)c1NC(=O)OC(C)c1ccccc1Cl (stereo not drawn) [Ki16425]
LPA1 [5]
  Ki: 340 nM
LPA3 [6]
  Ki: 930 nM
LPA1 [7]
  Ki: 340 nM
[1]; [12]
  inhibition of growth at 5 µM: -25.5%
LPA3 [8]
  Ki: 930 nM
LPA2
  Ki: 6.5 µM

## CN(C)C(=O)COC(=O)Cc1ccc(OC(=O)c2ccc(NC(=N)N)cc2)cc1 [Camostat Mesilate (FOY-305)]
[9]
  IC50: 200 nM
[1]; [11]
  inhibition of growth at 5 µM: 2.5%
matriptase
  IC50: 500 nM

## Cc1ccc(-c2c(-c3nn(C)c4ncnc(N5CC[C@H](N6CCCCC6)C5)c34)cnn2C)cc1 [PF-4981517]
[1]; [11]
  inhibition of growth at 5 µM: -8.9%
CYP3A4 (P450)
  IC50: 30 nM

## Cc1ccccc1C(=O)Nc1ccc(C(=O)N2CCCC(N(C)C)c3ccccc32)cc1 (stereo not drawn) [Mozavaptan]
[1]; [11]
  inhibition of growth at 5 µM: 3.1%
V2 receptor
  IC50: 14 nM
V1 receptor
  IC50: 1200 nM

## O=C(O)CNC(=O)c1c(O)c2ccccc2n(Cc2ccccc2)c1=O [IOX2]
[10]
  IC50: 21 nM
[1]; [11]
  inhibition of growth at 5 µM: 32.8%

## Cc1ccc(S(=O)(=O)n2c(N)nc3ccccc32)cc1 [ML130]
[1]; [11]
  inhibition of growth at 5 µM: 3.3%
NOD1
  IC50: 560 nM

## O=C(c1cc(Cc2n[nH]c(=O)c3ccccc23)ccc1F)N1CCN(C(=O)C2CC2)CC1 [Olaparib (AZD2281)]
[1]; read-out: Parasite inhibition (%) mean
  inhibition of growth at 5 µM: 28.2%
PARP2
  IC50: 1 nM

## CC(C)n1cnc2c(NCCc3ccc(O)cc3)nc(-c3csc4ccccc34)nc21 [StemRegenin 1]
[1]; [11]
  inhibition of growth at 5 µM: 0.2%
AhR
  IC50: 127 nM

## COc1ccc(C2=N[C@@H](c3ccc(Cl)cc3)[C@@H](c3ccc(Cl)cc3)N2C(=O)N2CCNC(=O)C2)c(OC(C)C)c1 [Nutlin-3]
Mdm2
  IC50: […]
[1]; [12]
  inhibition of growth at 5 µM: -1.5%
